The results in this text go back to patent US20220396569A1 (Carmot Therapeutics, Inc., priority 2021, published 2022).

T1 sequence (P43220 24-463): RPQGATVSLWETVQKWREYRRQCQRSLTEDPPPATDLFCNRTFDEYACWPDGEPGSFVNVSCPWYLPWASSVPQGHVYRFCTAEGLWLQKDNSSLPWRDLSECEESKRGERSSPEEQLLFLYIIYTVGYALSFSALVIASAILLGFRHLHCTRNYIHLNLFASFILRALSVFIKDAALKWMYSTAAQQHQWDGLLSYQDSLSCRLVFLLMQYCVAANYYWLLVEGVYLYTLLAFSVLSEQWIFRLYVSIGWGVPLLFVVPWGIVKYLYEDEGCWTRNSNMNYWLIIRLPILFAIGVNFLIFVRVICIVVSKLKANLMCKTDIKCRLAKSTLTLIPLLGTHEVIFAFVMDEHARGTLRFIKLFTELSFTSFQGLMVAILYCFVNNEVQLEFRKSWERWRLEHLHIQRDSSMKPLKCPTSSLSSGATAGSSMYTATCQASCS

The first test has as its target T1, human GLP-1 receptor (Homo sapiens, UniProt P43220).
T1 construct: expressed in transfected cells
Description: GLP-1R cAMP Assay (HitHunter cAMP accumulation). The following applies: EC50, cAMP accumulation, CHO cells stably overexpressing human GLP-1 receptor, 30 min treatment. The format is cell-based. The essentials:
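CHO cells stably expressing human GLP-1R, 10,000 cells/well in HBSS with 10 mM HEPES and 625 μM IBMX, were mixed with anti-cAMP antibody reagent. Compound was applied as a 20-point dose response in triplicate for 30 min. After lysis and overnight detection, luminescence was read and dose-response curves analysed.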
(In general: Changes in cAMP serve as a functional read-out for many G protein-coupled receptors.)
By EC50 is commonly meant the concentration needed to bring the measured effect to its halfway point. In the case of `O=C(O)c1cc(F)c2nc(CN3CC[C@H](Oc4ccnc(COc5ccc(Cl)cc5F)n4)C3)n(CC3CCO3)c2c1` (stereo partly drawn) [Compound 361, 2-{[(3S)-3-({2-[(4-chloro-2-fluorophenoxy)methyl]pyrimidin-4-yl}oxy)pyrrolidin-1-yl]methyl}-4-fluoro-1-[(oxetan-2-yl)methyl]-1H-1,3-benzodiazole-6-carboxylic acid], the EC50 is less than 50 nM.

The same test, now with this note: cAMP accumulation, CHO cells stably overexpressing human GLP-1 receptor, 30 min treatment; read-out: EC50.
Take `O=C(O)c1ccc2nc(CN3CC[C@@H](c4ccc(F)c(COc5ccc(Cl)cc5F)c4)C3)n(C[C@@H]3CCO3)c2c1` [Compound 446, 2-{[(3S)-3-{3-[(4-chloro-2-fluorophenoxy)methyl]-4-fluorophenyl}pyrrolidin-1-yl]methyl}-1-{[(2S)-oxetan-2-yl]methyl}-1H-1,3-benzodiazole-6-carboxylic acid]: the EC50 is less than 50 nM.
Still for that read-out and setting: under `N#Cc1cc(Cl)ccc1OCc1cccc(OC2CN(Cc3nc4ccc(C(=O)O)cc4n3C[C@@H]3CCO3)C2)c1` [Compound 194] stands less than 50 nM; under `CCn1cncc1Cn1c(CN2CC=C(c3cccc(COc4ccc(Cl)cc4Cl)n3)C2)nc2ccc(C(=O)O)cc21` [Compound 385, 2-[(3-{6-[(2,4-dichlorophenoxy)methyl]pyridin-2-yl}-2,5-dihydro-1H-pyrrol-1-yl)methyl]-1-[(1-ethyl-1H-imidazol-5-yl)methyl]-1H-1,3-benzodiazole-6-carboxylic acid], less than 50 nM.
Same read-out and setting: then `N#CCC1(Cn2c(Cc3ccc(Oc4ccnc(COc5ccc(C#N)cc5F)n4)cc3F)nc3ccc(C(=O)O)cc32)CC1` [Compound 468, 2-{[4-({2-[(4-cyano-2-fluorophenoxy)methyl]pyrimidin-4-yl}oxy)-2-fluorophenyl]methyl}-1-{[1-(cyanomethyl)cyclopropyl]methyl}-1H-1,3-benzodiazole-6-carboxylic acid], with less than 50 nM; and `O=C(O)c1ccc2nc(CN3CC[C@H](c4ccc(F)c(COc5ccc(Cl)cc5F)c4)C3)n(C[C@@H]3CCO3)c2c1` [Compound 448, 2-{[(3R)-3-{3-[(4-chloro-2-fluorophenoxy)methyl]-4-fluorophenyl}pyrrolidin-1-yl]methyl}-1-{[(2S)-oxetan-2-yl]methyl}-1H-1,3-benzodiazole-6-carboxylic acid], with 50 to 500 nM.
Still for that read-out and setting: then `O=C(O)c1ccc2nc(CN3CC[C@H](c4cccc(COc5ccc(Cl)cc5F)c4)C3)n(C[C@@H]3CCO3)c2c1` (single isomer, unassigned) [Example 412], with 50 to 500 nM.
With `O=C(O)c1ccc2nc(CN3CC=C(c4cc(COc5ccc(Cl)cc5F)ccn4)C3)n(C[C@@H]3CCO3)c2c1` [Compound 393], the EC50 fell in the range of 50 to 500 nM.
The same measure, in the same setting: under `O=C(O)c1ccc2nc(CN3CC[C@H](c4ccc(F)c(COc5ccc(Cl)cc5F)n4)C3)n(C[C@@H]3CCO3)c2c1` (single isomer, unassigned) [Compound 517] stands less than 50 nM; under `N#Cc1ccc(OCc2nc([C@@H]3C[C@@H](CF)N(Cc4nc5ccc(C(=O)O)cc5n4C[C@@H]4CCO4)C3)ccc2F)c(F)c1` (single isomer, unassigned) [Compound 527], less than 50 nM.
With `O=C(O)c1ccc2nc(CN3CC=C(c4nc(COc5ccc(Cl)cc5F)ccc4F)C3)n(C[C@@H]3CCO3)c2c1` [Compound 436], the EC50 is less than 50 nM.
Same read-out and setting: under `N#Cc1cc(F)ccc1OCc1cc([C@@H]2CCN(Cc3nc4ccc(C(=O)O)cc4n3C[C@@H]3CCO3)C2)ccc1F` [Compound 447, 2-{[(3S)-3-{3-[(2-cyano-4-fluorophenoxy)methyl]-4-fluorophenyl}pyrrolidin-1-yl]methyl}-1-{[(2S)-oxetan-2-yl]methyl}-1H-1,3-benzodiazole-6-carboxylic acid] stands less than 50 nM; under `CCn1cncc1Cn1c(CN2CCC(Cc3cccc4c3OC(C)(c3ccc(Cl)cc3F)O4)CC2)nc2ccc(C(=O)O)cc21` (stereo not shown) [Compound 209], less than 50 nM; under `O=C(O)c1cc(F)c2nc(CN3CC[C@@H](c4ccc(F)c(COc5ccc(Cl)cc5F)n4)C3)n(C[C@@H]3CCO3)c2c1` [Compound 453, 2-{[(3R)-3-{6-[(4-chloro-2-fluorophenoxy)methyl]-5-fluoropyridin-2-yl}pyrrolidin-1-yl]methyl}-4-fluoro-1-{[(2S)-oxetan-2-yl]methyl}-1H-1,3-benzodiazole-6-carboxylic acid], less than 50 nM.
The same measure, in the same setting: then `O=C(O)c1ccc2nc(CN3CC=C(c4cncc(COc5ccc(Cl)cc5F)n4)C3)n(C[C@@H]3CCO3)c2c1` [Example 396, (S)-2-((3-(6-((4-Chloro-2-fluorophenoxy)methyl)pyrazin-2-yl)-2,5-dihydro-1H-pyrrol-1-yl)methyl)-1-(oxetan-2-ylmethyl)-1H-benzo[d]imidazole-6-carboxylic acid], with less than 50 nM; and `N#Cc1ccc(OCc2nc(N3CC[C@H](Cc4nc5ccc(C(=O)O)cc5n4C[C@@H]4CCO4)C3)ccc2F)c(F)c1` [Compound 530], with less than 50 nM.
`O=C(O)c1ccc2nc(CN3CC=C(c4nccc(COc5ccc(Cl)cc5F)n4)C3)n(C[C@@H]3CCO3)c2c1` [Example 435, (S)-2-((3-(4-((4-Chloro-2-fluorophenoxy)methyl)pyrimidin-2-yl)-2,5-dihydro-1H-pyrrol-1-yl)methyl)-1-(oxetan-2-ylmethyl)-1H-benzo[d]imidazole-6-carboxylic acid]: the EC50 is less than 50 nM.
The same measure, in the same setting: under `CCn1cncc1Cn1c(CN2CC(Oc3cccc(COc4ccc(Cl)cc4C#N)c3)C2)nc2ccc(C(=O)O)cc21` [Compound 212, 2-[(3-{3-[(4-chloro-2-cyanophenoxy)methyl]phenoxy}azetidin-1-yl)methyl]-1-[(1-ethyl-1H-imidazol-5-yl)methyl]-1H-1,3-benzodiazole-6-carboxylic acid] stands less than 50 nM; under `N#Cc1ccc(OCc2ccc(F)c(C3CCN(Cc4nc5c(F)cc(C(=O)O)cc5n4C[C@@H]4CCO4)C3)n2)c(F)c1` (stereo partly drawn) [Compound 521, 2-[(3-{6-[(4-cyano-2-fluorophenoxy)methyl]-3-fluoropyridin-2-yl}pyrrolidin-1-yl)methyl]-4-fluoro-1-{[(2S)-oxetan-2-yl]methyl}-1H-1,3-benzodiazole-6-carboxylic acid], less than 50 nM.
On the same count and under the same terms, under `N#Cc1ccc(OCc2nc([C@@H]3C[C@@H](CF)N(Cc4nc5ccc(C(=O)O)cc5n4C[C@@H]4CCO4)C3)ccc2F)c(F)c1` (single isomer, unassigned) [Compound 526] stands 50 to 500 nM; under `CCn1cncc1Cn1c(CN2CC(=Cc3ccnc(COc4ccc(Cl)cc4C#N)c3)C2)nc2ccc(C(=O)O)cc21` [Compound 226, 2-{[3-({2-[(4-chloro-2-cyanophenoxy)methyl]pyridin-4-yl}methylidene)azetidin-1-yl]methyl}-1-[(1-ethyl-1H-imidazol-5-yl)methyl]-1H-1,3-benzodiazole-6-carboxylic acid], less than 50 nM; under `O=C(O)c1ccc2nc(CN3CC[C@H](Oc4ccnc(COc5ccc(Cl)cc5F)n4)C3)n(C[C@@H]3CCO3)c2c1` [Example 360, 2-(((S)-3-((2-((4-Chloro-2-fluorophenoxy)methyl)pyrimidin-4-yl)oxy)pyrrolidin-1-yl)methyl)-1-(((S)-oxetan-2-yl)methyl)-1H-benzo[d]imidazole-6-carboxylic acid], less than 50 nM.
As to `CC1(c2ccc(Cl)cn2)Oc2cccc(CC3CN(Cc4nc5ccc(C(=O)O)cc5n4C[C@@H]4CCO4)C3)c2O1` (stereo partly drawn) [Compound 172, 2-[(3-{[2-(5-chloropyridin-2-yl)-2-methyl-2H-1,3-benzodioxol-4-yl]methyl}azetidin-1-yl)methyl]-1-{[(2S)-oxetan-2-yl]methyl}-1H-1,3-benzodiazole-6-carboxylic acid], the EC50 was more than 500 nM.
The same measure, in the same setting: then `N#Cc1ccc(OCc2cc(Oc3ccc(Cc4nc5c(F)cc(C(=O)O)cc5n4C[C@@H]4CCO4)c(F)c3)ccn2)c(F)c1` [Compound 537, 2-{[4-({2-[(4-cyano-2-fluorophenoxy)methyl]pyridin-4-yl}oxy)-2-fluorophenyl]methyl}-4-fluoro-1-{[(2S)-oxetan-2-yl]methyl}-1H-1,3-benzodiazole-6-carboxylic acid], with less than 50 nM; and `N#Cc1ccc(OCc2ccc(F)c(C3=CCN(Cc4nc5ccc(C(=O)O)cc5n4C[C@@H]4CCO4)C3)n2)c(Cl)c1` [Compound 458, 2-[(3-{6-[(2-chloro-4-cyanophenoxy)methyl]-3-fluoropyridin-2-yl}-2,5-dihydro-1H-pyrrol-1-yl)methyl]-1-{[(2S)-oxetan-2-yl]methyl}-1H-1,3-benzodiazole-6-carboxylic acid], with less than 50 nM.
Same read-out and setting: then `N#Cc1ccc(OCc2nc([C@@H]3CCN(Cc4nc5c(F)cc(C(=O)O)cc5n4C[C@@H]4CCO4)C3)ccc2F)c(F)c1` [Compound 454, 2-{[(3R)-3-{6-[(4-cyano-2-fluorophenoxy)methyl]-5-fluoropyridin-2-yl}pyrrolidin-1-yl]methyl}-4-fluoro-1-{[(2S)-oxetan-2-yl]methyl}-1H-1,3-benzodiazole-6-carboxylic acid], with less than 50 nM; and `O=C(O)c1ccc2nc(CN3CC=C(c4ccc(F)c(COc5ccc(Cl)cc5Cl)c4)C3)n(C[C@@H]3CCO3)c2c1` [Compound 388, 2-[(3-{3-[(2,4-dichlorophenoxy)methyl]-4-fluorophenyl}-2,5-dihydro-1H-pyrrol-1-yl)methyl]-1-{[(2S)-oxetan-2-yl]methyl}-1H-1,3-benzodiazole-6-carboxylic acid], with less than 50 nM; and `Cc1cc(Oc2ccnc(COc3ccc(C#N)cc3F)n2)ccc1Cc1nc2c(F)cc(C(=O)O)cc2n1C[C@@H]1CCO1` [Compound 540, (S)-2-(4-((2-((4-Cyano-2-fluorophenoxy)methyl)pyrimidin-4-yl)oxy)-2-methylbenzyl)-4-fluoro-1-(oxetan-2-ylmethyl)-1H-benzo[d]imidazole-6-carboxylic acid], with less than 50 nM.
